According to ChEMBL document CHEMBL3885861, “Open TG-GATES”:

Species on record: Rattus norvegicus
Test: Open TG-GATES - Regimen: Single
Format: toxicity, organism-based, Sprague-Dawley
Set-up: regimen Single, gender Male, age 6 weeks
Conditions: in vivo, po, 300 mg/kg, route gavage, dose level High; for APTT / Bas / Eos / Fbg / Hb / Ht / Lym / MCH / MCHC / MCV / Mono / Neu / PT / Plat / RBC / Ret / WBC: tissue Blood; for KIDNEY_L / KIDNEY_R / KIDNEY_TOTAL: tissue Kidney; for LIVER: tissue Liver; for A/G / ALP / ALT / AST / BUN / CRE / Ca / Cl / DBIL / GLC / IP / K / LDH / Na / PL / RALB / TBIL / TC / TG / TP / gamma-GTP: tissue Plasma

## ClC(Cl)(Cl)Cl [CARBON TETRACHLORIDE]
3 h
  TERMINAL_BW: 206.7 g
  APTT: 18.3 s
  Bas: 0%
  Eos: 1%
  Fbg: 242 mg/dL
  Hb: 13 g/dL
  Ht: 37.2%
  Lym: 74.4%
  MCH: 21.8 pg
  MCHC: 34.9%
  MCV: 62.4 fL
  Mono: 2.2%
  Neu: 21.8%
  PT: 12.5 s
  Plat: 125.5 x10_4/uL
  RBC: 595.8 x10_4/ul
  Ret: 8.9%
  WBC: 76.7 x10_2/uL
  KIDNEY_L: 0.9 g
  KIDNEY_R: 0.9 g
  KIDNEY_TOTAL: 1.8 g
  LIVER: 9.4 g
  A/G: 1.6
  ALP: 909.4 IU/L
  ALT: 39.4 IU/L
  AST: 67.8 IU/L
  BUN: 12.2 mg/dL
  CRE: 0.4 mg/dL
  Ca: 10.5 mg/dL
  Cl: 104 meq/L
  DBIL: 0.1 mg/dL
  GLC: 187.4 mg/dL
  IP: 10.1 mg/dL
  K: 3.8 meq/L
  LDH: 201.4 IU/L
  Na: 140 meq/L
  PL: 156.4 mg/dL
  RALB: 3.3 g/dL
  TBIL: 0.2 mg/dL
  TC: 79.2 mg/dL
  TG: 90.8 mg/dL
  TP: 5.4 g/dL
  gamma-GTP: 1.2 IU/L
6 h
  TERMINAL_BW: 208.2 g
  APTT: 18.5 s
  Bas: 0%
  Eos: 0.8%
  Fbg: 231.4 mg/dL
  Hb: 13.1 g/dL
  Ht: 37.9%
  Lym: 77.2%
  MCH: 21.3 pg
  MCHC: 34.6%
  MCV: 61.7 fL
  Mono: 3%
  Neu: 18.4%
  PT: 13 s
  Plat: 125.2 x10_4/uL
  RBC: 614.2 x10_4/ul
  Ret: 8.6%
  WBC: 96.7 x10_2/uL
  KIDNEY_L: 0.9 g
  KIDNEY_R: 0.9 g
  KIDNEY_TOTAL: 1.8 g
  LIVER: 9.1 g
  A/G: 1.7
  ALP: 830.8 IU/L
  ALT: 29.8 IU/L
  AST: 65.2 IU/L
  BUN: 10.4 mg/dL
  CRE: 0.4 mg/dL
  Ca: 10.5 mg/dL
  Cl: 103.2 meq/L
  DBIL: 0.086 mg/dL
  GLC: 201.8 mg/dL
  IP: 10.1 mg/dL
  K: 4 meq/L
  LDH: 205.8 IU/L
  Na: 139.6 meq/L
  PL: 150.4 mg/dL
  RALB: 3.4 g/dL
  TBIL: 0.1 mg/dL
  TC: 73 mg/dL
  TG: 68.2 mg/dL
  TP: 5.5 g/dL
  gamma-GTP: 1.2 IU/L
9 h
  TERMINAL_BW: 203.7 g
  APTT: 19.1 s
  Bas: 0%
  Eos: 1%
  Fbg: 232.6 mg/dL
  Hb: 13.3 g/dL
  Ht: 37.9%
  Lym: 80.4%
  MCH: 21.5 pg
  MCHC: 35%
  MCV: 61.7 fL
  Mono: 2.8%
  Neu: 16%
  PT: 12.5 s
  Plat: 137.8 x10_4/uL
  RBC: 615.2 x10_4/ul
  Ret: 8.7%
  WBC: 72.4 x10_2/uL
  KIDNEY_L: 0.9 g
  KIDNEY_R: 0.9 g
  KIDNEY_TOTAL: 1.8 g
  LIVER: 8.8 g
  A/G: 1.5
  ALP: 987.6 IU/L
  ALT: 28.4 IU/L
  AST: 63.2 IU/L
  BUN: 9.4 mg/dL
  CRE: 0.4 mg/dL
  Ca: 10.5 mg/dL
  Cl: 103 meq/L
  DBIL: 0.1 mg/dL
  GLC: 193 mg/dL
  IP: 10.4 mg/dL
  K: 3.9 meq/L
  LDH: 200.2 IU/L
  Na: 139.4 meq/L
  PL: 150.8 mg/dL
  RALB: 3.3 g/dL
  TBIL: 0.2 mg/dL
  TC: 71 mg/dL
  TG: 80.2 mg/dL
  TP: 5.5 g/dL
  gamma-GTP: 1.2 IU/L
24 h
  TERMINAL_BW: 212.9 g
  APTT: 19.3 s
  Bas: 0%
  Eos: 1%
  Fbg: 225.4 mg/dL
  Hb: 13.5 g/dL
  Ht: 38.6%
  Lym: 79%
  MCH: 22.4 pg
  MCHC: 34.8%
  MCV: 64.4 fL
  Mono: 3.8%
  Neu: 15.6%
  PT: 12.6 s
  Plat: 131.5 x10_4/uL
  RBC: 599.6 x10_4/ul
  Ret: 7.8%
  WBC: 110.3 x10_2/uL
  KIDNEY_L: 1 g
  KIDNEY_R: 1 g
  KIDNEY_TOTAL: 2 g
  LIVER: 10.2 g
  A/G: 1.6
  ALP: 1310.2 IU/L
  ALT: 42.2 IU/L
  AST: 75 IU/L
  BUN: 16.4 mg/dL
  CRE: 0.4 mg/dL
  Ca: 10.8 mg/dL
  Cl: 103.8 meq/L
  DBIL: 0.08 mg/dL
  GLC: 183.8 mg/dL
  IP: 8 mg/dL
  K: 3.9 meq/L
  LDH: 192.6 IU/L
  Na: 140 meq/L
  PL: 139.6 mg/dL
  RALB: 3.5 g/dL
  TBIL: 0.1 mg/dL
  TC: 61.4 mg/dL
  TG: 69.6 mg/dL
  TP: 5.6 g/dL
  gamma-GTP: 1 IU/L
